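Exposure lasted 48 hours, with cells grown in 96-well plates and compounds tested at five concentrations. The concentration for 50% growth inhibition is given as GI50.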 The source made the active and inactive calls. Cut-off read from the data, not from the text of the source: active = GI50 up to about 1.1 µM and inactive = higher.
What was measured:
Experiment in all cases: NCI anticancer screen, dose series, 48 h
SR = test system: SR
BT-549 = test system: BT-549
NCI-H226 = test system: NCI-H226
786-0 = test system: 786-0
HL-60 = test system: HL-60
UACC-62 = test system: UACC-62
NCI-H23 = test system: NCI-H23
HT-29 = test system: HT-29
OVCAR-3 = test system: OVCAR-3
CAKI-1 = test system: CAKI-1
SK-MEL-2 = test system: SK-MEL-2
MOLT-4 = test system: MOLT-4
SN12C = test system: SN12C
SF-268 = test system: SF-268
SK-OV-3 = test system: SK-OV-3
T47D = test system: T47D
HOP-62 = test system: HOP-62
KM12 = test system: KM12
U-251 = test system: U-251
HCT-116 = test system: HCT-116
RXF 393 = test system: RXF 393
HOP-92 = test system: HOP-92
UACC-257 = test system: UACC-257
A498 = test system: A498
SF-539 = test system: SF-539
SNB-75 = test system: SNB-75
MCF7 = test system: MCF7
NCI/ADR-RES = test system: NCI/ADR-RES
NCI-H460 = test system: NCI-H460
CCRF-CEM = test system: CCRF-CEM
TK-10 = test system: TK-10
OVCAR-5 = test system: OVCAR-5
SK-MEL-28 = test system: SK-MEL-28
HCT-15 = test system: HCT-15
MDA-MB-231 = test system: MDA-MB-231
LOX IMVI = test system: LOX IMVI
DU-145 = test system: DU-145
UO-31 = test system: UO-31
HCC 2998 = test system: HCC 2998
EKVX = test system: EKVX
OVCAR-8 = test system: OVCAR-8
SNB-19 = test system: SNB-19
SK-MEL-5 = test system: SK-MEL-5
SF-295 = test system: SF-295
SW-620 = test system: SW-620
Hs-578T = test system: Hs-578T
IGROV-1 = test system: IGROV-1
ACHN = test system: ACHN
RPMI-8226 = test system: RPMI-8226
Malme-3M = test system: Malme-3M
OVCAR-4 = test system: OVCAR-4
K562 = test system: K562
A549 = test system: A549
COLO 205 = test system: COLO 205
MDA-MB-435 = test system: MDA-MB-435
NCI-H522 = test system: NCI-H522
PC-3 = test system: PC-3
M14 = test system: M14
MDA-N = test system: MDA-N

Cc1ccc([N+](=O)[O-])c2c(NCCNC(=O)c3cc(C(=O)NCCNc4ccnc5c(C)ccc([N+](=O)[O-])c45)n(C)n3)ccnc12
GI50 (SR): 55.1 µM (inactive) | GI50 (BT-549): > 100 µM (inactive) | GI50 (NCI-H226): > 100 µM (inactive) | GI50 (786-0): > 56 µM (inactive) | GI50 (HL-60): 53.6 µM (inactive) | GI50 (UACC-62): > 47.4 µM (inactive) | GI50 (NCI-H23): > 84.9 µM (inactive) | GI50 (HT-29): > 77.8 µM (inactive) | GI50 (OVCAR-3): > 80.9 µM (inactive) | GI50 (CAKI-1): 98.6 µM (inactive) | GI50 (SK-MEL-2): > 100 µM (inactive) | GI50 (MOLT-4): 31.7 µM (inactive) | GI50 (SN12C): > 57.7 µM (inactive) | GI50 (SF-268): > 100 µM (inactive) | GI50 (SK-OV-3): > 100 µM (inactive) | GI50 (T47D): > 77.8 µM (inactive) | GI50 (HOP-62): > 60 µM (inactive) | GI50 (KM12): > 100 µM (inactive) | GI50 (U-251): > 89.5 µM (inactive) | GI50 (HCT-116): > 100 µM (inactive) | GI50 (RXF 393): > 100 µM (inactive) | GI50 (HOP-92): > 100 µM (inactive) | GI50 (UACC-257): > 81.1 µM (inactive) | GI50 (A498): > 57.4 µM (inactive) | GI50 (SF-539): > 100 µM (inactive) | GI50 (SNB-75): 45.2 µM (inactive) | GI50 (MCF7): > 21.5 µM (inactive) | GI50 (NCI/ADR-RES): > 100 µM (inactive) | GI50 (NCI-H460): > 100 µM (inactive) | GI50 (CCRF-CEM): 36 µM (inactive) | GI50 (TK-10): > 80.7 µM (inactive) | GI50 (OVCAR-5): > 84.9 µM (inactive) | GI50 (SK-MEL-28): > 60.5 µM (inactive) | GI50 (HCT-15): > 76.9 µM | GI50 (MDA-MB-231): > 54 µM (inactive) | GI50 (LOX IMVI): > 44.7 µM (inactive) | GI50 (DU-145): > 100 µM (inactive) | GI50 (UO-31): > 100 µM (inactive) | GI50 (HCC 2998): > 100 µM (inactive) | GI50 (EKVX): > 100 µM (inactive) | GI50 (OVCAR-8): > 72.1 µM (inactive) | GI50 (SNB-19): > 100 µM (inactive) | GI50 (SK-MEL-5): 32.1 µM (inactive) | GI50 (SF-295): > 79.6 µM (inactive) | GI50 (SW-620): 32.9 µM (inactive) | GI50 (Hs-578T): > 87.3 µM (inactive) | GI50 (IGROV-1): > 100 µM (inactive) | GI50 (ACHN): > 100 µM (inactive) | GI50 (RPMI-8226): 41.2 µM (inactive) | GI50 (Malme-3M): 55.2 µM (inactive) | GI50 (OVCAR-4): > 49.1 µM (inactive) | GI50 (K562): 40.5 µM (inactive) | GI50 (A549): > 57.1 µM (inactive) | GI50 (COLO 205): > 100 µM (inactive) | GI50 (MDA-MB-435): > 41.6 µM (inactive) | GI50 (NCI-H522): > 67.3 µM (inactive) | GI50 (PC-3): > 100 µM (inactive) | GI50 (M14): > 72.4 µM (inactive) | GI50 (MDA-N): > 43.7 µM (inactive)

CCN(CC)c1ccc2cc(C(=O)NCc3ccccc3)c(=N)oc2c1
GI50 (SR): > 42.6 µM (inactive) | GI50 (BT-549): 23.5 µM (inactive) | GI50 (NCI-H226): > 89.5 µM (inactive) | GI50 (786-0): > 62.1 µM (inactive) | GI50 (HL-60): 39.1 µM (inactive) | GI50 (UACC-62): 14.3 µM (inactive) | GI50 (NCI-H23): 31.1 µM (inactive) | GI50 (HT-29): 9.02 µM (inactive) | GI50 (OVCAR-3): 15.6 µM (inactive) | GI50 (CAKI-1): > 44.8 µM (inactive) | GI50 (SK-MEL-2): 21.4 µM (inactive) | GI50 (MOLT-4): 24.9 µM (inactive) | GI50 (SN12C): > 100 µM (inactive) | GI50 (SF-268): > 79.6 µM (inactive) | GI50 (SK-OV-3): 56.8 µM (inactive) | GI50 (T47D): 4.33 µM (inactive) | GI50 (HOP-62): 59.8 µM (inactive) | GI50 (KM12): 8.93 µM (inactive) | GI50 (U-251): 27.7 µM (inactive) | GI50 (HCT-116): 39 µM (inactive) | GI50 (RXF 393): 47.5 µM (inactive) | GI50 (HOP-92): 22.1 µM (inactive) | GI50 (UACC-257): 20.4 µM (inactive) | GI50 (A498): > 100 µM (inactive) | GI50 (SF-539): 46.3 µM (inactive) | GI50 (SNB-75): 37.3 µM (inactive) | GI50 (MCF7): 36.4 µM (inactive) | GI50 (NCI/ADR-RES): 0.912 µM (active) | GI50 (NCI-H460): 28.2 µM (inactive) | GI50 (CCRF-CEM): 13.3 µM (inactive) | GI50 (TK-10): 14.4 µM (inactive) | GI50 (OVCAR-5): > 100 µM (inactive) | GI50 (SK-MEL-28): 66.2 µM (inactive) | GI50 (HCT-15): 9.27 µM | GI50 (MDA-MB-231): > 46.3 µM (inactive) | GI50 (LOX IMVI): 4.7 µM (inactive) | GI50 (DU-145): 35 µM (inactive) | GI50 (UO-31): > 26.6 µM (inactive) | GI50 (HCC 2998): 40.4 µM (inactive) | GI50 (EKVX): 13.7 µM (inactive) | GI50 (OVCAR-8): 37.7 µM (inactive) | GI50 (SNB-19): 54.3 µM (inactive) | GI50 (SK-MEL-5): 27.6 µM (inactive) | GI50 (SF-295): 27.5 µM (inactive) | GI50 (SW-620): 6.01 µM (inactive) | GI50 (Hs-578T): > 37.6 µM (inactive) | GI50 (IGROV-1): 43.7 µM (inactive) | GI50 (ACHN): 5.43 µM (inactive) | GI50 (RPMI-8226): 6.95 µM (inactive) | GI50 (Malme-3M): 15.2 µM (inactive) | GI50 (OVCAR-4): 16.9 µM (inactive) | GI50 (K562): 3.86 µM (inactive) | GI50 (A549): 42.1 µM (inactive) | GI50 (COLO 205): 16 µM (inactive) | GI50 (MDA-MB-435): 6.7 µM (inactive) | GI50 (NCI-H522): 9.59 µM (inactive) | GI50 (PC-3): 19.3 µM (inactive) | GI50 (M14): 11.1 µM (inactive) | GI50 (MDA-N): 70.5 µM (inactive)
